Among the data in PubChem BioAssay (NCI) are GI50 and TGI values, retold here.

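Exposure lasted 48 hours, with cells grown in 96-well plates and compounds tested at five concentrations. GI50 = concentration required for 50% inhibition of growth. Definition used: TGI = concentration required for complete inhibition of growth.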

Holding throughout (test): NCI anticancer screen, dose series, 48 h
Assay [1] has as its system A498 renal.
In assay [2] the test system is HOP-62 NSCLC.
Assay [3] concerns HT29 colon.
The subject of assay [4] is IGROV1 ovarian.
Assay [5] concerns KM12 colon.
In assay [6] the test system is MOLT-4 leukemia.
Assay [7] concerns NCI-H460 lung.
Assay [8] has as its system NCI-H522 lung.
For assay [9], the system named is OVCAR-8 ovarian.
Assay [10] relates to SNB-19 CNS.

As for `Cc1cc(O)c(C2=NN(c3ccc(S(N)(=O)=O)cc3)C(/C=C/c3ccccc3)C2)cc1Cl` (stereo not given), the GI50 in assay [1] was 14.9 µM; in assay [2], 3.94 µM; in assay [3] it was 3.73 µM; in assay [4] it was 4.32 µM; in assay [5] it was 11.7 µM; in [6] it was 17.7 µM. The GI50 was 4.03 µM in assay [7], 4.62 µM in assay [8], 3.03 µM in assay [9] and 7.84 µM in assay [10]. Also, the TGI in assay [1] turned out to be 42.4 µM; in assay [2], 14.1 µM; in assay [3], 14.7 µM; in assay [4], 19.8 µM; in assay [5], 34.8 µM; in assay [6], 73.7 µM. Further, the TGI in [7] came out at 17 µM; in [8], 19.4 µM; in [9], 20.2 µM; in [10], 19.9 µM.
For `COc1ccc(NC(=O)CC(=O)n2nc(C)c(N=Nc3ccccc3C(=O)O)c2C)cc1`, the TGI in [1], in assay [2], in [3], in [4], in assay [5] and in assay [6] was over 100 µM in each case. In addition, the TGI in [7], in assay [8], in [9] and in assay [10] was over 100 µM each time.
As for `COC(=O)c1cc(OC)c(OC)c(OC)c1-c1cc2c(cc1C=O)OCO2`, the TGI in [1], in assay [2], in [3], in assay [4], in assay [5] and in [6] was over 10 µM in each case. The TGI in assay [7], in assay [8], in assay [9] and in assay [10] was over 10 µM in each case.
Regarding `C=C(C(=C)P(=S)(C(C)C)C(C)C)P(=S)(C(C)C)C(C)C`, the TGI in assay [1], in [2], in assay [3], in [4], in assay [5] and in assay [6] was over 100 µM in each case. Further, the TGI in [7], in assay [8], in [9] and in [10] was over 100 µM throughout.
With `Cc1c2c(c(C)c3c1[nH]c1ccccc13)CN(C)CC2`, the TGI is 59.4 µM in [1]; over 100 µM in assay [2]; 36.3 µM in assay [3]; over 100 µM in assay [4]; 33.9 µM in assay [5]; over 100 µM in assay [6]. In addition, the TGI in [7] is 35.5 µM; in [8], 31.3 µM; in [9] it was 37.7 µM; in assay [10], over 100 µM.
`c1ccc(OCc2nnc3n2N=C(c2ccccc2)CS3)cc1`: the TGI in [1], in assay [2], in assay [3], in assay [4], in [5] and in [6] was over 100 µM each time. The TGI in [7], in assay [8], in assay [9] and in [10] was over 100 µM each time.
As for `CC(=O)/C=C/c1ccc(OCc2ccc(Cl)cc2)cc1`, the GI50 was 254 µM in [1]; over 1000 µM in assay [2]; over 1000 µM in [3]; over 1000 µM in assay [4]; 513 µM in [5]; 240 µM in [6]. Further, the GI50 in assay [7] is 529 µM; in [8], 295 µM; in [9] it was 613 µM; in [10] it was over 1000 µM. The TGI in [1], in assay [2], in assay [3], in assay [4], in assay [5] and in assay [6] was over 1000 µM each time. Further, the TGI in [7], in assay [8], in [9] and in assay [10] was over 1000 µM in each case.
With `CC(=O)c1ccc(NC(=O)COC(=O)c2cccc3c(=O)c4ccccc4[nH]c23)cc1`, the TGI is over 100 µM in assay [1]; 90.7 µM in assay [2]; over 100 µM in assay [3]; over 100 µM in assay [4]; over 100 µM in assay [5]; over 100 µM in [6]. The TGI is over 100 µM in assay [7], over 100 µM in assay [8], over 100 µM in [9] and 68.6 µM in [10].
`CC(=O)Nc1n[n+]([O-])c2cc(C)ccc2[n+]1[O-]`: the TGI in assay [1] is 19.4 µM; in assay [2], 11.4 µM; in assay [3], 13.4 µM; in [4] it was 5.33 µM; in assay [5], 11.3 µM; in assay [6], over 100 µM. Also, the TGI in assay [7] is 2.14 µM; in assay [8], 5.53 µM; in assay [9], 16.3 µM; in [10], 23.3 µM.
In the case of `CN(C)c1ccc(/C=N/S(=O)(=O)c2ccc(-n3c(-c4ccccc4)nc4c(Br)cc(Br)cc4c3=O)cc2)cc1`, the GI50 in assay [1] is 32.5 µM; in [2], 47.7 µM; in [3], 42.5 µM; in assay [4], 25.6 µM; in assay [5], 32.3 µM; in assay [6] it was 33.3 µM. Also, the GI50 in assay [7] is 28.5 µM; in assay [8] it was 32.2 µM; in assay [9] it was 34.2 µM; in [10], 51.2 µM. Moreover, the TGI is over 93.7 µM in [1]; over 100 µM in assay [2]; over 100 µM in assay [3]; over 100 µM in assay [4]; over 100 µM in assay [5]; over 80.5 µM in assay [6]. In addition, the TGI was over 100 µM in assay [7], over 97 µM in assay [8], over 100 µM in assay [9] and over 100 µM in [10].
